# Reference: US7781441B2, “(3,4-dihydro-quinazolin-2-yl)-(2-aryloxy-ethyl)-amine” (Hoffmann-La Roche Inc., priority 2005, dated 2010)
# Target: T1, recombinant human 5-HT5A receptor (Homo sapiens, UniProt P47898)
# T1 construct: expressed in transfected cells; host or cells: HEK-EBNA (Human Embryonic Kidney-EBNA) cells, transient cDNA expression; membranes
# Experiment: [3H]LSD radioligand binding assay
# Conditions: [3H]LSD (approximately 1 nM); membranes from transiently expressed 5-HT5A receptors in HEK-EBNA cells; Ki by Cheng-Prussoff equation
# Procedure: Compounds of the invention were tested for 5-HT5A activity in the following assay.
# A [^3H]LSD radioligand binding assay was used to determine the affinity of the compounds for the recombinant human 5-HT5A receptor, in membranes from transiently (cDNA) expressed 5-HT5A receptors in Human Embryonic Kidney-EBNA (HEK-EBNA) cells. Assay buffer consisted of Tris (50 mM) buffer containing 1 mM EGTA, 10 mM MgCl2 (pH 7.4) and 10 μM pargyline. The binding assay was carried out in 96-well-plates in the presence of [^3H]LSD (approximately 1 nM), approximately 2 μg/well of membrane protein, and 0.5 mg of Ysi-poly-l-lysine SPA beads in a final volume of 200 μl of buffer. Non-specific binding was defined using methiothepin 2 μM. Compounds were tested at 10 concentrations. All assays were conducted in duplicate and repeated at least two times. Assay plates were incubated for 120 min at room temperature before centrifugation. Bound ligand was determined using a Packard Topcount scintillation counter. IC50 values were calculated using a non-linear curve fitting program and Ki values calated using the Cheng-Prussoff equation.
# T1 sequence (P47898 whole entry): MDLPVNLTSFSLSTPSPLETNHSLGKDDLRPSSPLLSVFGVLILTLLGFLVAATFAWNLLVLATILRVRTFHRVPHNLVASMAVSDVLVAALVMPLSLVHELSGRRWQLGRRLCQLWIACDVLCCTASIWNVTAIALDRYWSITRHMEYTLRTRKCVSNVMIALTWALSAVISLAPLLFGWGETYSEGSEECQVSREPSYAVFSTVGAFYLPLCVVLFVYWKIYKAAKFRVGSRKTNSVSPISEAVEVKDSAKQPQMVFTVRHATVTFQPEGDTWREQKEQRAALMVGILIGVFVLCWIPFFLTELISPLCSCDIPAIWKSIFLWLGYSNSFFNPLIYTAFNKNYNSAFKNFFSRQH
row,Compound,Ki
1,"COc1ccccc1OCCNC1=Nc2ccccc2CN1 [Example 1, (3,4-Dihydro-quinazolin-2-yl)-[2-(2-methoxy-phenoxy)-ethyl]-amine]",7.5 nM
2,"Clc1ccccc1OCCNC1=Nc2ccccc2CN1 [Example 3, [2-(2-Chloro-phenoxy)-ethyl]-(3,4-dihydro-quinazolin-2-yl)-amine]",19 nM
3,"Cc1ccc2c(c1)CNC(NCCOc1ccccc1)=N2 [Example 4, (6-Methyl-3,4-dihydro-quinazolin-2-yl)-(2-phenoxy-ethyl)-amine]",25 nM
4,"Fc1ccccc1OCCNC1=Nc2ccccc2CN1 [Example 6, (3,4-Dihydro-quinazolin-2-yl)-[2-(2-fluoro-phenoxy)-ethyl]-amine]",34 nM
5,"Fc1cccc2c1CNC(NCCOc1ccccc1)=N2 [Example 7, (5-Fluoro-3,4-dihydro-quinazolin-2-yl)-(2-phenoxy-ethyl)-amine hydroiodide]",30 nM
6,"CCOc1ccccc1OCCNC1=Nc2ccccc2CN1 [Example 8, (3,4-Dihydro-quinazolin-2-yl)-[2-(2-ethoxy-phenoxy)-ethyl]-amine]",38 nM
7,"FC(F)(F)Oc1ccccc1OCCNC1=Nc2ccccc2CN1 [Example 13, (3,4-Dihydro-quinazolin-2-yl)-[2-(2-trifluoromethoxy-phenoxy)-ethyl]-amine]",72 nM
8,"Clc1ccc2c(c1Cl)CNC(NCCOc1ccccc1)=N2 [Example 14, (5,6-Dichloro-3,4-dihydro-quinazolin-2-yl)-(2-phenoxy-ethyl)-amine hydroiodide]",76 nM
9,"COc1cccc(OCCNC2=Nc3ccccc3CN2)c1 [Example 16, (3,4-Dihydro-quinazolin-2-yl)-[2-(3-methoxy-phenoxy)-ethyl]-amine]",96 nM
10,"Fc1cccc(OCCNC2=Nc3ccccc3CN2)c1 [Example 17, (3,4-Dihydro-quinazolin-2-yl)-[2-(3-fluoro-phenoxy)-ethyl]-amine]",96 nM
11,"Clc1cccc(OCCNC2=Nc3ccccc3CN2)c1 [Example 18, [2-(3-Chloro-phenoxy)-ethyl]-(3,4-dihydro-quinazolin-2-yl)-amine]",100 nM
12,"COc1ccccc1OCCNC1=Nc2ccc(F)cc2CN1 [Example 29, (6-Fluoro-3,4-dihydro-quinazolin-2-yl)-[2-(2-methoxy-phenoxy)-ethyl]-amine]",19.9 nM
13,"Brc1ccccc1OCCNC1=Nc2ccccc2CN1 [Example 37, [2-(2-Bromo-phenoxy)-ethyl]-(3,4-dihydro-quinazolin-2-yl)-amine]",22.2 nM
14,"N#Cc1ccccc1OCCNC1=Nc2ccccc2CN1 [Example 38, 2-[2-(3,4-Dihydro-quinazolin-2-ylamino)-ethoxy]-benzonitrile]",54 nM
15,"c1ccc(COc2ccccc2OCCNC2=Nc3ccccc3CN2)cc1 [Example 39, [2-(2-Benzyloxy-phenoxy)-ethyl]-(3,4-dihydro-quinazolin-2-yl)-amine]",86.7 nM
16,"COc1ccc(C)cc1OCCNC1=Nc2ccccc2CN1 [Example 44, (3,4-Dihydro-quinazolin-2-yl)-[2-(2-methoxy-5-methyl-phenoxy)-ethyl]-amine]",82.5 nM
17,"Fc1ccc(Br)c(OCCNC2=Nc3ccccc3CN2)c1 [Example 46, [2-(2-Bromo-5-fluoro-phenoxy)-ethyl]-(3,4-dihydro-quinazolin-2-yl)-amine]",89 nM
18,"COc1ccc2c(c1)CNC(NCCOc1ccccc1OC)=N2 [Example 62, (6-Methoxy-3,4-dihydro-quinazolin-2-yl)-[2-(2-methoxy-phenoxy)-ethyl]-amine]",53.6 nM
19,"COc1ccccc1OCCNC1=Nc2cccc(F)c2CN1 [Example 67, (5-Fluoro-3,4-dihydro-quinazolin-2-yl)-[2-(2-methoxy-phenoxy)-ethyl]-amine]",23.6 nM

# Other lines, results leading:
row,Ki,Compound
1,18 nM,"Fc1ccc2c(c1)CNC(NCCOc1ccccc1)=N2 [Example 2, (6-Fluoro-3,4-dihydro-quinazolin-2-yl)-(2-phenoxy-ethyl)-amine]"
2,42 nM,"c1ccc(OCCNC2=Nc3ccccc3CN2)cc1 [Example 5, (3,4-Dihydro-quinazolin-2-yl)-(2-phenoxy-ethyl)-amine hydroiodide]"
3,53 nM,"Clc1cccc2c1CNC(NCCOc1ccccc1)=N2 [Example 9, (5-Chloro-3,4-dihydro-quinazolin-2-yl)-(2-phenoxy-ethyl)-amine hydroiodide]"
4,46 nM,"Cc1cccc2c1CNC(NCCOc1ccccc1)=N2 [Example 10, (5-Methyl-3,4-dihydro-quinazolin-2-yl)-(2-phenoxy-ethyl)-amine hydroiodide]"
5,58 nM,"CC1NC(NCCOc2ccccc2)=Nc2ccccc21 (stereo not shown) [Example 11, (4-Methyl-3,4-dihydro-quinazolin-2-yl)-(2-phenoxy-ethyl)-amine hydroiodide]"
6,64 nM,"Cc1cccc(OCCNC2=Nc3ccccc3CN2)c1 [Example 12, (3,4-Dihydro-quinazolin-2-yl)-(2-m-tolyloxy-ethyl)-amine]"
7,76 nM,"COc1ccc2c(c1)CNC(NCCOc1ccccc1)=N2 [Example 15, (6-Methoxy-3,4-dihydro-quinazolin-2-yl)-(2-phenoxy-ethyl)-amine]"
8,58.7 nM,"C/C=C/c1ccccc1OCCNC1=Nc2ccccc2CN1 [Example 34, (3,4-Dihydro-quinazolin-2-yl)-[2-(2-propenyl-phenoxy)-ethyl]-amine]"
9,35.7 nM,"CSc1ccccc1OCCNC1=Nc2ccccc2CN1 [Example 35, (3,4-Dihydro-quinazolin-2-yl)-[2-(2-methylsulfanyl-phenoxy)-ethyl]-amine]"
10,90.3 nM,"COc1cccc(OC)c1OCCNC1=Nc2ccccc2CN1 [Example 41, (3,4-Dihydro-quinazolin-2-yl)-[2-(2,6-dimethoxy-phenoxy)-ethyl]-amine]"
11,42.9 nM,"COc1cccc(F)c1OCCNC1=Nc2ccccc2CN1 [Example 45, (3,4-Dihydro-quinazolin-2-yl)-[2-(2-fluoro-6-methoxy-phenoxy)-ethyl]-amine]"
12,83.1 nM,"COc1ccc2c(c1)CNC(NCCOc1ccccc1Cl)=N2 [Example 56, [2-(2-Chloro-phenoxy)-ethyl]-(6-methoxy-3,4-dihydro-quinazolin-2-yl)-amine]"
13,53.8 nM,"Cc1ccc2c(c1)CNC(NCCOc1ccccc1Cl)=N2 [Example 58, [2-(2-Chloro-phenoxy)-ethyl]-(6-methyl-3,4-dihydro-quinazolin-2-yl)-amine]"
14,48.4 nM,"Fc1cccc2c1CNC(NCCOc1ccccc1Cl)=N2 [Example 59, [2-(2-Chloro-phenoxy)-ethyl]-(5-fluoro-3,4-dihydro-quinazolin-2-yl)-amine]"
15,19.7 nM,"COc1ccccc1OCCNC1=Nc2ccc(C)cc2CN1 [Example 64, [2-(2-Methoxy-phenoxy)-ethyl]-(6-methyl-3,4-dihydro-quinazolin-2-yl)-amine]"
